From article PMC11001709, “Anti-toxoplasma activity and DNA-binding of copper(II) and zinc(II) coordination compounds with 5-nitroimidazole-based ligands” (Journal of Biological Inorganic Chemistry, 2023)
Where “and” joins values, the source holds several entries; their conditions need not be identical. Identical values can stand only once.

Assays:
[1] = Distribution coefficient LogD7.4, shake-flask 1-octanol/MOPS buffer; assay type: physicochemical; conditions: 25 °C
Method: Solutions between 100 and 10 µM of the free ligands (cenz and onz) and the coordination compounds 3–10 were prepared in a MOPS buffer pH 7.4 as the aqueous phase and in 1-octanol as the organic phase. The absorption at 320 nm and 310 nm was determined for the aqueous and organic phase respectively by electronic spectroscopy (UV–Vis). Through a linear regression (concentration vs. absorption) the molar extinction coefficient of each compound in both phases was determined (Table 3). The lipophilicity was calculated in the 1-octanol/water system from the shake flask method using Eq. 1 [39]:1 […] where, Co is the final concentration in the organic phase and Cw is the final concentration in the aqueous phase (MOPS buffer at 10^–2 M pH 7.4). Both phases were presaturated with 50 µM solutions of the free ligands or 500 µM of each coordination compound and their UV spectrum was recorded. Both phases were combined and kept stirring for 3 h at 25 °C and in the absence of light. Subsequently, the mixture was centrifuged at 400g and the concentration in both phases was determined by UV–Vis spectroscopy using the Beer-Lambert law. The assays were performed in triplicate.
The T gondii parasite is an apicomplex organism; it requires a host cell to live, so it is important that the drugs used against the parasite have easy access to the cell. The lipophilicity of a compound is an important physicochemical property to determine its ability to permeate the biological membrane through passive diffusion; which usually is measured from the distribution coefficient logD7.4 = log(Co/Cw), in n-octanol/water. The shake-flask method was used to determine the LogD7.4 values from the molar extinction coefficients of the coordination compounds and the ligands in the two solvents (Table 3).

ct-DNA [2] = assay: Competitive displacement of Hoechst 33258 from DNA (fluorescence); assay type: binding, calf; conditions: Hoechst 33258 1.9 µM, [DNA]b = 30 µM, compound 0-50 µM, 1 h
Method: (§1) For the UV–Vis, fluorescence and circular dichroism assays the concentration of ct-DNA was determined on a Varian Cary 100 Scan spectrophotometer from the absorption at 260 nm and the corresponding molar absorptivity of 6600 M^−1 cm^−1 (nucleobase concentration). The stock solutions of the coordination compounds and the free ligands were prepared in cacodylate/NaCl buffer (1 mM cacodylic acid and 20 mM sodium chloride) at pH 7.25. The final samples contained a DMSO concentration of 0.2%.
Emission intensity of the dyes DNA-intercalator ethidium bromide, EB (λexc = 514 nm) and the minor-groove binder Hoechst 33,258 (λexc = 350 nm) was measured on iHR320 HORIBA JOBIN YVON spectrofluorometer. The samples contained 15 µM (in base pairs) of ct-DNA and 75 µM of EB […] in cacodylate/NaCl buffer. The respective dye was incubated for 30 min with ct-DNA to allow its binding to the biomolecule. Subsequently, increasing amounts of coordination compounds (0–50 µM) were added up to a final volume of 2 mL, and the samples were incubated for 1 h at 37 °C. The fluorescence spectra of all samples were recorded at room temperature. The affinity of the compounds for ct-DNA compared to EB was evaluated through the Stern–Volmer quenching constant Ksv, from Eq. 3:3 I0/I=1+Ksvcompound where I0 and I are the emission intensities in absence and the presence of the compound, respectively.
Competitive binding assays were carried out with Hoechst 33,258. This dye binds to B-DNA, especially those with an AT-rich sequence giving a fluorescent signal at 458 nm when excited at 350 nm. As for to the EB assays, DNA (30 µM) was incubated for 30 min with Hoechst 33,258 (1.9 µM) and increasing amounts of the coordination compounds were subsequently added. In all cases, fluorescence quenching was observed (Fig. 9). As previously, the Ksv constants were determined (Fig. 9c and Table 4). The copper(II) compounds show Ksv values in the […] range (Table 4), indicating a groove binding behavior. For the zinc(II) compounds, the Ksv values are two orders of magnitude lower indicating weaker interactions, must likely of electrostatic nature.

ct-DNA [3] = assay: Circular dichroism of ct-DNA; assay type: binding, calf; conditions: [DNA]b = 50 µM, [complex]/[DNA] 0-2, 1 h 37 °C
Method: as §1
Circular dichroism (CD) spectra were recorded using a JASCO-815 spectropolarimeter, equipped with xenon-arc lamp of 450 W. The sample compartment was air-purged with N2 before use. For the measurements, a quartz cuvette with an optical path of 5 mm was used. A solution of 25 µM (in base pairs) of ct-DNA in cacodylate/NaCl buffer was incubated for 1 h at 37 °C with increasing amounts of coordination compounds (0–50 µM). The CD spectra were recorded at room temperature.
The interaction of small molecules with DNA can modify these CD signals depending on the type of binding. Intercalative interactions increase the intensity of the signals, as the result of an increase of the stability of the B conformation, whereas groove binding or covalent interactions tend to decrease the intensity of these signals, which are moreover displaced. The CD spectra for both ligands and their copper(II) and zinc(II) complexes were obtained at constant concentration of ct-DNA, increasing the complex concentration up to two equivalents ([complex]/[DNA] ratios of 0, 0.2, 0.4, 1, 2) with respect to the nucleobases concentration ([DNA]b = 50 µM).

pBR322 plasmid DNA = assay: Agarose gel electrophoresis, DNA cleavage; assay type: biochemical
Method: Electrophoresis assays were performed in 1.5% agarose gel and 1× TBE buffer using the DNA plasmid pBR322. The plasmid (15 µM base pairs) was incubated with 10 and 50 μM concentrations of the coordination compounds for 1 h at 37 °C in presence and absence of ascorbic acid (50 μM) as reducing agent and hydrogen peroxide (500 µM) as ROS generator in a final volume of 20 μL. The DNA-cleaving compound [Cu(phen)2(H2O)](NO3)2 was used as reference. The samples were loaded into the gel with 4 μL of a loading buffer (30% glycerol, 5 mM xylene cyanol), and electrophoresis was performed in 1× TBE at 100 V for 1 h in a Bio-Rad horizontal tank. Subsequently, the gel was stained with SYBR™ Safe overnight and images were acquired with a Gel Doc EZ Imager instrument (Bio-Rad).
Distinct forms of pBR322 plasmid DNA are commonly observed by gel electrophoresis due to the conformational changes that present distinct electrophoretic mobility: (1) supercoiled DNA (Form I) that migrates faster on the gel, (2) circular nicked (Form II), obtained from a one-strand scission, has a slower migration through the gel and (3) linear form (Form III) is generated when both strands are cleaved and migrates between forms I and II [54]. The interaction of the free ligands and their copper(II) and zinc(II) coordination compounds with pBR322 was investigated in presence of H2Asc (50 μM) as reducing agent and H2O2 (500 μM) as ROS generator. Solutions of 10 and 50 µM of the coordination compounds were incubated with the DNA at 37 °C for 1 h.

[4] = test system: RH tachyzoites of Toxoplasma gondii; assay: Viability of extracellular tachyzoites, Sytox Green exclusion test; assay type: cell-based; conditions: 2.5-40 µM, 1 h, PBS
Method: RH tachyzoites of Toxoplasma gondii were extracted in PBS solution at pH 7.4 from intraperitoneal fluid of infected CD1 mice on the third day of infection and centrifuged for ten minutes at 260g. Purified parasites were used within 4 h after their isolation.
The viability of the parasites was determined from staining with Sytox Green® fluorescent dye exclusion test. Purified tachyzoites (1 × 10^6) were incubated for one hour at room temperature with PBS solutions of the coordination compounds or the free ligands at concentrations of 40, 20, 10, 5, and 2.5 µM (0.1% DMSO), in a volume final of 1 mL. After the incubation time, the samples were centrifuged for 10 min at 250g, the medium was removed and 20 µL of Sytox Green® was added after 15 min of incubation for differentiate dead parasites in a Neubauer chamber. The assays were performed in triplicate. The half maximal inhibitory concentration (IC50) was calculated by Boltzmann regression analysis and expressed as mean ± standard error of three replicates. Based on the results the tachyzoites were incubated under the same conditions with the coordination compounds [Cu(onz)2Cl2] and [Cu(onz)2Br2] at their respective IC50 values, Sytox Green® was then added, and they were observed by fluorescence microscopy. Sulfadiazine was used as positive control.
Viability assays were performed against tachyzoites of Toxoplasma gondii. The RH strain was used to evaluate the effect of different concentrations (namely, 2.5, 5, 10, 20 and 40 µM) of the coordination compounds and the free 5-nitroimidazole against the tachyzoites. The evaluation were performed in PBS buffer (pH 7.4) with Sytox Green® exclusion test, which allows differentiating dead from live tachyzoites, since the intact cell membrane of alive ones is not stained.

[5] = compound 10 (mM in the source), + H2Asc
[6] = compound 10 (mM in the source), + H2Asc + H2O2
[7] = compound 10 (mM in the source), + H2O2
[8] = compound 10 (mM in the source), no additive
[9] = compound 50 (mM in the source), + H2Asc
[10] = compound 50 (mM in the source), + H2Asc + H2O2
[11] = compound 50 (mM in the source), + H2O2
[12] = compound 50 (mM in the source), no additive

## Cc1ncc([N+](=O)[O-])n1CCCl.Cc1ncc([N+](=O)[O-])n1CCCl.[Cl][Zn][Cl] [[Zn(cenz)2Cl2]]
[1]; octanol/water (MOPS buffer 10^–2 M), 3 h
  LogD7.4: 0.86
ct-DNA [2]
  Hoechst 33258 Ksv: 61000 M⁻¹
ct-DNA [3]
  effect on CD spectrum of ct-DNA (bands at 275 and 245 nm): spectra changes are minor
pBR322 plasmid DNA; [5]
  %Damage: 17.10%
  %Nicked: 2.90%
  %Supercoiled: 82.90%
pBR322 plasmid DNA; [6]
  %Damage: 90.90%
  %Nicked: 2.10%
  %Supercoiled: 9.10%
pBR322 plasmid DNA; [7]
  %Damage: 7.30%
  %Nicked: 6.50%
  %Supercoiled: 92.70%
pBR322 plasmid DNA; [8]
  %Damage: 20.80%
  %Nicked: 2.50%
  %Supercoiled: 79.20%
pBR322 plasmid DNA; [9]
  %Damage: 80.60%
  %Nicked: 40.60%
  %Supercoiled: 19.40%
pBR322 plasmid DNA; [10]
  %Damage: 100.00%
pBR322 plasmid DNA; [11]
  %Damage: 97.60%
  %Nicked: 81.50%
  %Supercoiled: 2.40%
pBR322 plasmid DNA; [12]
  %Damage: 18.40%
  %Nicked: 2.20%
  %Supercoiled: 81.60%

## O.O=[N+]([O-])[O-].O=[N+]([O-])[O-].[Cu+2].c1cnc2c(c1)ccc1cccnc12.c1cnc2c(c1)ccc1cccnc12 [Cu(phen), reference compound]
pBR322 plasmid DNA; [5]
  %Damage: 100.00% and 94.90%
  %Nicked: 64.80%
  %Supercoiled: 5.10%
pBR322 plasmid DNA; [6]
  %Damage: 100.00%
pBR322 plasmid DNA; [7]
  %Damage: 80.70% and 79.00%
  %Supercoiled: 19.30% and 21.00%
pBR322 plasmid DNA; [8]
  %Supercoiled: 81.70% and 93.20%

## Cc1ncc([N+](=O)[O-])n1CCCl [cenz, 1-(2-chloroethyl)-2-methyl-5-nitro-1H-imidazole]
[4]
  activity against T. gondii: did not show activity
[1]; 1-octanol/MOPS buffer, pH 7.4, octanol/water (MOPS buffer 10^–2 M)
  logD at 3 h: 0.72
ct-DNA [3]
  effect on CD spectrum of ct-DNA (bands at 275 and 245 nm): did not affect the DNA structure
pBR322 plasmid DNA; [9]
  %Damage: 8.80%
  %Supercoiled: 91.20%
pBR322 plasmid DNA; [10]
  %Damage: 9.70%
  %Nicked: 4.00%
  %Supercoiled: 90.30%
pBR322 plasmid DNA; [11]
  %Damage: 7.20%
  %Nicked: 5.90%
  %Supercoiled: 92.80%
pBR322 plasmid DNA; [12]
  %Damage: 7.50%
  %Supercoiled: 92.50%
pBR322 plasmid DNA; with and without H2Asc / H2O2
  DNA cleavage (in words): did not provoke any significant DNA cleavage
